Measured values taken from patent US11667602B2, “Compounds and their use” (AstraZeneca AB, priority 2020, dated 2023).

Target: T1, human RXFP1 (Homo sapiens, UniProt Q9HBX9)
T1 sequence (Q9HBX9 1-757): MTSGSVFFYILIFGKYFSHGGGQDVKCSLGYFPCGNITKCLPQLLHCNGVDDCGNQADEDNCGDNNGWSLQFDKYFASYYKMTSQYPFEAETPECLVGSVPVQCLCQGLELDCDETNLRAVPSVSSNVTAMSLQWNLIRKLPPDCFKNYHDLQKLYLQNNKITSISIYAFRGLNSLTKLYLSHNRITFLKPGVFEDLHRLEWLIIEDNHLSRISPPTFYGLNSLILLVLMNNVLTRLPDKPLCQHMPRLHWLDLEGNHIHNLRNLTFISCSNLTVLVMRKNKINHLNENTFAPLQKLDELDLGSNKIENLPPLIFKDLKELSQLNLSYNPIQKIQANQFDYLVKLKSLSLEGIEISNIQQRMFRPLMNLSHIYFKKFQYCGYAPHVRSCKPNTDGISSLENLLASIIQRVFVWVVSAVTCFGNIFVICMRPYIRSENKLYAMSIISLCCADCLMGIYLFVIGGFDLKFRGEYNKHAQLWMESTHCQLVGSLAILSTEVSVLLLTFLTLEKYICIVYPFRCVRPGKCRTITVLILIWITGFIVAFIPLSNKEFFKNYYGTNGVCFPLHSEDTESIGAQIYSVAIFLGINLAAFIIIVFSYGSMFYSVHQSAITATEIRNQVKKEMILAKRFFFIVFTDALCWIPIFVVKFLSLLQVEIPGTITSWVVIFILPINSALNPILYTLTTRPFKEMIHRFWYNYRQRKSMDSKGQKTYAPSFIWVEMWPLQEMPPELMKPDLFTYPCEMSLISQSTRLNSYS
Experiment: RXFP1 Hu cAMP (Test A)
Assay type: cell-based
Parameters: expressed in transfected cells; host or cells: Jump-In T-REx CHO-K1 cells (ThermoFisher), induced with 10 ng/ml doxycycline for 24 h
Details: RXFP1 Hu cAMP; for EC50: read-out: Test A EC50
How it was run: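 Cells: CHO-K1 stably carrying human RXFP1, expressed after 24 h 10 ng/ml doxycycline; 0.5 mM IBMX final, HTRF detection after 2 h at room temperature.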

Compound | EC50 [nM] | Test A Sinf [%]
COc1cc(F)c(O[C@H]2CC[C@@](C)(C(=O)O)CC2)cc1C(=O)NC1C2C=CC(CC2)C1C(=O)NCC1(C)CCC1 (single isomer, unassigned) [Example 544, (1R,4s)-4-(2-Fluoro-4-methoxy-5-(((1R*,2S*,3R*,4S*)-3-(((1-methylcyclobutyl)methyl)carbamoyl)bicyclo[2.2.2]oct-5-en-2-yl)carbamoyl)phenoxy)-1-methylcyclohexane-1-carboxylic acid] | > 40000 | 
COc1cc(F)c(O[C@H]2CC[C@@](C)(C(=O)O)CC2)cc1C(=O)N[C@@H]1[C@@H](O)[C@@H](O)C[C@@H]1C(=O)Nc1cccc(S(=O)(=O)C(F)(F)F)c1 (racemic) [Example 394, (1R,4s)-4-(5-(((1SR,2RS,3SR,5SR)-2,3-Dihydroxy-5-((3-((trifluoromethyl)sulfonyl)phenyl)carbamoyl)cyclopentyl)carbamoyl)-2-fluoro-4-methoxyphenoxy)-1-methylcyclohexane-1-carboxylic acid] | > 40000 | 
COc1cc(F)c(Cn2ccc(C(=O)O)n2)cc1C(=O)N[C@@H]1[C@H]2CC[C@H](C2)[C@@H]1C(=O)Nc1cccc(S(=O)(=O)C(F)(F)F)c1 [Example 222, 1-(2-Fluoro-4-methoxy-5-(((1S,2R,3S,4R)-3-((3-((trifluoromethyl)sulfonyl)phenyl)carbamoyl)bicyclo[2.2.1]heptan-2-yl)carbamoyl)benzyl)-1H-pyrazole-3-carboxylic acid] | > 40000 | 
COc1cc(F)c(O[C@H]2CC[C@@](C)(C(=O)O)CC2)cc1C(=O)N[C@@H]1COC[C@@H]1C(=O)Nc1cccc(S(=O)(=O)C(F)(F)F)c1 (racemic) [Example 342] | 550 | 132
COc1cc(F)c(O[C@H]2CC[C@@](C)(C(=O)O)CC2)cc1C(=O)NC1CCC1C(=O)NCC(C)(C)C (single isomer, unassigned) [Example 568, (1R,4s)-4-(2-Fluoro-4-methoxy-5-(((1S*,2R*)-2-(neopentylcarbamoyl)cyclobutyl)carbamoyl)phenoxy)-1-methylcyclohexane-1-carboxylic acid] | > 40000 | 
COc1ccc(CCC(=O)O)cc1C(=O)N[C@H]1[C@@H](C(=O)Nc2cccc(S(=O)(=O)C(F)(F)F)c2)[C@@H]2C=C[C@H]1C2 (racemic) [Example 218, rac-3-(4-Methoxy-3-(((1R,2R,3S,4S)-3-((3-((trifluoromethyl)sulfonyl)phenyl)carbamoyl)bicyclo[2.2.1]hept-5-en-2-yl)carbamoyl)phenyl)propanoic acid] | > 40000 | 
COc1cc(F)c(O[C@H]2CC[C@@](C)(C(=O)O)CC2)cc1C(=O)NC1COCC1C(=O)Nc1cccc(S(=O)(=O)C(F)(F)F)c1 (single isomer, unassigned) [Example 560, (1R,4s)-4-(2-Fluoro-4-methoxy-5-(((3S*,4R*)-4-((3-((trifluoromethyl)sulfonyl)phenyl)carbamoyl)tetrahydrofuran-3-yl)carbamoyl)phenoxy)-1-methylcyclohexane-1-carboxylic acid] | > 40000 | 
COc1cc(C#N)c(O[C@H]2CC[C@@](C)(C(=O)O)CC2)cc1C(=O)N[C@@H]1[C@H]2CC[C@H](C2)[C@@H]1C(=O)NCCCF [Example 135] |  | 76
COC[C@]1(C(=O)O)CC[C@@H](Oc2cc(C(=O)N[C@@H]3[C@H]4CC[C@H](C4)[C@@H]3C(=O)NCC(C)(C)C)c(OC)cc2F)CC1 [Example 481] |  | 96
(1R,4s)-4-(2-Fluoro-4-methoxy-5-(((3S*,4R*)-4-(neopentylcarbamoyl)tetrahydrofuran-3-yl)carbamoyl)phenoxy)-1-methylcyclohexane-1-carboxylic acid [Example 567] |  | 86
COc1cc(F)c(-c2ccccc2CC(=O)O)cc1C(=O)N[C@H]1[C@@H](C(=O)Nc2cccc(S(=O)(=O)C(F)(F)F)c2)[C@@H]2C=C[C@H]1C2 (racemic) [Example 235] |  | 75
(1R,4s)-4-(2-Fluoro-4-methoxy-5-(((1S*,2R*)-2-(neopentylcarbamoyl)cyclobutyl)carbamoyl)phenoxy)-1-methylcyclohexane-1-carboxylic acid [Example 569] |  | 97
(1R,4s)-4-(2-fluoro-4-methoxy-5-(((3S*,4S*)-3-((3-((trifluoromethyl)sulfonyl)phenyl)carbamoyl)tetrahydro-2H-pyran-4-yl)carbamoyl)phenoxy)-1-methylcyclohexane-1-carboxylic acid [Example 519] |  | 101

The next lines start with the values.

EC50 [nM] | Test A Sinf [%] | Compound
130 | 108 | CCOc1cc(F)c(O[C@H]2CC[C@@](C)(C(=O)O)CC2)cc1C(=O)N[C@@H]1[C@H]2CC[C@H](C2)[C@@H]1C(=O)NC12CC(F)(C1)C2 [Example 384]
130 | 170 | COc1cc(C#N)c(O[C@H]2CC[C@@](C)(C(=O)O)CC2)cc1C(=O)Nc1cc(Cl)ccc1C(=O)NC12CC(C1)C2 [Example 161]
84 | 106 | COc1cc(F)c(-c2cnc([C@@H]3C[C@H]3C(=O)O)cn2)cc1C(=O)N[C@@H]1[C@H]2CC[C@H](C2)[C@@H]1C(=O)Nc1cccc(S(=O)(=O)C(F)(F)F)c1 (single isomer, unassigned) [Example 263, (1R*,2R*)-2-(5-(2-Fluoro-4-methoxy-5-(((1S,2R,3S,4R)-3-((3-((trifluoromethyl)sulfonyl)phenyl)carbamoyl)bicyclo[2.2.1]heptan-2-yl)carbamoyl)phenyl)pyrazin-2-yl)cyclopropane-1-carboxylic acid]
7400 | 122 | COc1cc(F)c(-c2cc(C(=O)O)ccn2)cc1C(=O)N[C@H]1[C@@H](C(=O)Nc2cccc(S(=O)(=O)C(F)(F)F)c2)[C@@H]2C=C[C@H]1C2 (racemic) [Example 277]
570 | 111 | COc1cc(F)c(-c2ncc(C(=O)O)s2)cc1C(=O)N[C@H]1[C@@H](C(=O)Nc2cccc(S(=O)(=O)C(F)(F)F)c2)[C@@H]2C=C[C@H]1C2 (racemic) [Example 287]
88 | 118 | COc1cc(C#N)c(O[C@H]2CC[C@@](C)(C(=O)O)CC2)cc1C(=O)Nc1cc(Cl)ccc1C(=O)NCC1CCCCCC1 [Example 157, (1s,4s)-4-(5-((5-Chloro-2-((cycloheptylmethyl)carbamoyl)phenyl)carbamoyl)-2-cyano-4-methoxyphenoxy)-1-methylcyclohexane-1-carboxylic acid]
520 | 118 | COc1cc(F)c(O[C@H]2CC[C@@](C)(C(=O)O)CC2)cc1C(=O)N[C@@H]1[C@H]2CC[C@H](C2)[C@@H]1C(=O)NCC1(OC)CCC1 [Example 593, (1S,4s)-4-(2-Fluoro-4-methoxy-5-(((1S,2R,3S,4R)-3-(((1-methoxycyclobutyl)methyl)carbamoyl)bicyclo[2.2.1]heptan-2-yl)carbamoyl)phenoxy)-1-methylcyclohexane-1-carboxylic acid]
350 | 84 | COc1cc(F)c(OC2CCC(O)(C(=O)O)CC2)cc1C(=O)N[C@@H]1[C@@H]2CC[C@@H](C2)[C@@H]1C(=O)Nc1cccc(S(=O)(=O)C(F)(F)F)c1 (relative stereo) [Example 583, (1R,4r)-4-(2-Fluoro-4-methoxy-5-(((1R*,2R*,3S*,4S*)-3-((3-((trifluoromethyl)sulfonyl)phenyl)carbamoyl)bicyclo[2.2.1]heptan-2-yl)carbamoyl)phenoxy)-1-hydroxycyclohexane-1-carboxylic acid]
110 | 99 | COCCOc1cc(F)c(O[C@H]2CC[C@@](C)(C(=O)O)CC2)cc1C(=O)N[C@@H]1[C@H]2CC[C@H](C2)[C@@H]1C(=O)NCC1(C)CCC1 [Example 391]
190 | 126 | COc1cc(C#N)c(O[C@H]2CC[C@@](C)(C(=O)O)CC2)cc1C(=O)Nc1cc(C)ccc1C(=O)NC12CC(C1)C2 [Example 173]
6900 | 90 | COc1cc(F)c(O[C@H]2CC[C@@H](C(=O)O)CC2)cc1C(=O)N[C@@H]1[C@@H]2C[C@@H]([C@@H](O)[C@H]2O)[C@@H]1C(=O)Nc1cccc(S(=O)(=O)C(F)(F)F)c1 [Example 494]
98 | 100 | COC[C@]1(C(=O)O)CC[C@H](Oc2cc(C(=O)N[C@@H]3[C@@H]4CC[C@@H](C4)[C@@H]3C(=O)Nc3cccc(S(=O)(=O)C(F)(F)F)c3)c(OC)cc2F)CC1 [Example 480]
> 2500 |  | Cn1ncc2cc(C(=O)N[C@@H]3[C@H]4CC[C@H](C4)[C@@H]3C(=O)NCC3(C)CCC3)cc(O[C@H]3CC[C@@](C)(C(=O)O)CC3)c21 [Example 378]
